One assay concerns the target T1, STAT6 (Homo sapiens, UniProt P42226).
T1 construct: stably transfected HaCaT keratinocyte cell line, which expresses NanoLuc luciferase reporter gene under the transcriptional control of the STAT6 responsive promoter; endogenous in cells; host or cells: HaCaT keratinocyte reporter cell line (stably transfected with a NanoLuc reporter)
T1 sequence (P42226 1-847): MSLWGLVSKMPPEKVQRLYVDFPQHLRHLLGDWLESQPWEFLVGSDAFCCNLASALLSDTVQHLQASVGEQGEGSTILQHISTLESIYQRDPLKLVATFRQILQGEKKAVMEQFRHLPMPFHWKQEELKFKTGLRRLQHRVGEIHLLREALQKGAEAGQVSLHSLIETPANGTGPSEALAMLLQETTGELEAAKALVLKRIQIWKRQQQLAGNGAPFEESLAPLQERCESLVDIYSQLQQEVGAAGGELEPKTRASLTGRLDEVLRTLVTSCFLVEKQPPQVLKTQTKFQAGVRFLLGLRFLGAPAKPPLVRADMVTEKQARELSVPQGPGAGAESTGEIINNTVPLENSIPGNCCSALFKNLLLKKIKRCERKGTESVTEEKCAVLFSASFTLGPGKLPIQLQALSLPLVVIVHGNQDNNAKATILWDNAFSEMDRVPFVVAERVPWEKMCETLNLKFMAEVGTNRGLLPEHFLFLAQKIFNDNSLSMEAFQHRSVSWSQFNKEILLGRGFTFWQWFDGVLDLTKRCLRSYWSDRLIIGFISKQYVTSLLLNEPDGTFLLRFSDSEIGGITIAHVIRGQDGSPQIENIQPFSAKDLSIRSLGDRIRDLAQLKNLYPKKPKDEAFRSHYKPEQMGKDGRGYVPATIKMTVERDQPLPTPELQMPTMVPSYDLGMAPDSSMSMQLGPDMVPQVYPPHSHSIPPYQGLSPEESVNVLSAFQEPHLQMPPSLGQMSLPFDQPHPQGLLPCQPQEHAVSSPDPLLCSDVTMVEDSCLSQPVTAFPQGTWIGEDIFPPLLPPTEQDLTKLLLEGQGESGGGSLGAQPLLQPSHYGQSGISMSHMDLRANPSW
The assay is described as follows: STAT6 Reporter Luciferase Assay (IL-13 stimulated HaCaT keratinocyte NanoLuc reporter cells). In kind it is cell-based. The conditions noted are these: IL-13 stimulated HaCaT STAT6 NanoLuc reporter cells; read-out: Reporter EC50. In outline: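 Stably transfected HaCaT cells carrying NanoLuc under the STAT6-responsive IL-13Ra2 promoter were pre-treated with compound (11-point, 4-fold series, duplicate) for 2 h at 37 °C, then stimulated with 0.12 nM IL-13 for 4 h. Nano-Glo luminescence was read after 15 min.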

Assay [1] deals with CCL17 secretion in peripheral human whole blood. The assay is described as follows: Human Whole Blood (HWB) CCL17 TR-FRET Assay (IL-13 stimulated CCL17 secretion). The conditions noted are these: Homo sapiens, 48 h, human whole blood, 10 ng/mL IL13, 48 hours. In kind it is cell-based. In outline: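 Heparinized peripheral human whole blood was preincubated with compound (11-point, 3-fold series, duplicate) for 2 h at 37 °C, then stimulated with IL-13 at 10 ng/mL final for 48 h at 37 °C. Secreted CCL17 in the serum was quantified by TR-FRET sandwich immunoassay (665/615 nm ratio, 16 h RT); IC50 derived.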

What is called EC50 is the concentration giving half of the maximal effect. Usually IC50 stands for the concentration that gives 50% inhibition. Low values mean greater potency in that assay, high ones weaker potency in that assay. For the compound `CC(C)n1nc(C(=O)NCc2ccc(NC(=O)C3CCN(C)CC3)c(F)c2)c2c1[C@@H](C)CN(c1ccc(C(=O)N(C)C)cn1)C2` [Example 587, (S)-5-(5-(dimethylcarbamoyl)pyridin-2-yl)-N-(3-fluoro-4-(1-methylpiperidine-4-carboxamido)benzyl)-1-isopropyl-7-methyl-4,5,6,7-tetrahydro-1H-pyrazolo[4,3-c]pyridine-3-carboxamide], the EC50 at STAT6 was 14 nM. The same compound had an IC50 in assay [1] of 122 nM.

`COc1cc(NC(=O)N2CCNCC2)c(F)cc1CNC(=O)c1nn(C(C)C)c2c1CN(c1ccc(C(=O)N(C)C)cc1)C[C@@H]2C` [Example 588, (S)-5-(4-(dimethylcarbamoyl)phenyl)-N-(5-fluoro-2-methoxy-4-(piperazine-1-carboxamido)benzyl)-1-isopropyl-7-methyl-4,5,6,7-tetrahydro-1H-pyrazolo[4,3-c]pyridine-3-carboxamide]: the EC50 on STAT6 was found to be 75 nM. In addition, the concentration for half-maximal inhibition (IC50) in assay [1] worked out at 875 nM.

For `CC(C)n1nc(C(=O)NCc2ccc(NC(=O)N3CCNCC3)cc2F)c2c1[C@@H](C)CN(c1ccc(C(=O)N(C)C)cc1)C2` [Example 589, (S)-5-(4-(dimethylcarbamoyl)phenyl)-N-(2-fluoro-4-(piperazine-1-carboxamido)benzyl)-1-isopropyl-7-methyl-4,5,6,7-tetrahydro-1H-pyrazolo[4,3-c]pyridine-3-carboxamide], at STAT6, the EC50 is 3 nM. This compound also yielded an IC50 in assay [1] of 19 nM.

Consider `CC(C)n1nc(C(=O)NCc2ccc(NC(=O)N3CCC(F)(F)C3)cc2)c2c1[C@@H](C)CN(c1ccc(C(=O)N(C)C)cn1)C2` [Example 590, (S)-N-(4-(3,3-difluoropyrrolidine-1-carboxamido)benzyl)-5-(5-(dimethylcarbamoyl)pyridin-2-yl)-1-isopropyl-7-methyl-4,5,6,7-tetrahydro-1H-pyrazolo[4,3-c]pyridine-3-carboxamide], for which, on STAT6, the EC50 came out at 0.4 nM. This compound also returned an IC50 in assay [1] of 10 nM.

For `CC(C)n1nc(C(=O)NCc2ccc(NC(=O)N3CCC3)cc2)c2c1[C@@H](C)CN(c1ccc(C(=O)N(C)C)cn1)C2` [Example 591, (S)-N-(4-(azetidine-1-carboxamido)benzyl)-5-(5-(dimethylcarbamoyl)pyridin-2-yl)-1-isopropyl-7-methyl-4,5,6,7-tetrahydro-1H-pyrazolo[4,3-c]pyridine-3-carboxamide], the EC50 on STAT6 was determined as 1 nM. The IC50 in assay [1] was found to be 10 nM.

Turning to `CC(C)n1nc(C(=O)NCc2ccc(NC(=O)N3CCC(C)(O)CC3)cc2)c2c1[C@@H](C)CN(c1ccc(C(=O)N(C)C)cn1)C2` [Example 592, (S)-5-(5-(dimethylcarbamoyl)pyridin-2-yl)-N-(4-(4-hydroxy-4-methylpiperidine-1-carboxamido)benzyl)-1-isopropyl-7-methyl-4,5,6,7-tetrahydro-1H-pyrazolo[4,3-c]pyridine-3-carboxamide], the EC50 at STAT6 turned out to be 1 nM. In assay [1], the IC50 amounted to 9 nM.

Turning to `CC(C)n1nc(C(=O)NCc2ccc(NC(=O)N3CCC(C)(C#N)CC3)cc2)c2c1[C@@H](C)CN(c1ccc(C(=O)N(C)C)cn1)C2` [Example 593, (S)-N-(4-(4-cyano-4-methylpiperidine-1-carboxamido)benzyl)-5-(5-(dimethylcarbamoyl)pyridin-2-yl)-1-isopropyl-7-methyl-4,5,6,7-tetrahydro-1H-pyrazolo[4,3-c]pyridine-3-carboxamide], the EC50 at STAT6 was found to be 1 nM. For the same compound, in assay [1], the IC50 is 12 nM.

Take `CC(C)n1nc(C(=O)NCc2ccc(NC(=O)N3CCN(C)CC3)cc2)c2c1[C@@H](C)CN(c1ccc(-n3ccccc3=O)cc1)C2` [Example 594, (S)-1-isopropyl-7-methyl-N-(4-(4-methylpiperazine-1-carboxamido)benzyl)-5-(4-(2-oxopyridin-1(2H)-yl)phenyl)-4,5,6,7-tetrahydro-1H-pyrazolo[4,3-c]pyridine-3-carboxamide]: the 50% effective concentration (EC50) on STAT6 turned out to be 2 nM. Moreover, the IC50 in assay [1] worked out at 25 nM.

For the compound `CC(C)n1nc(C(=O)NCc2ccc(NC(=O)N3CC4(CNC4)C3)c(F)c2)c2c1[C@@H](C)CN(c1ccc(C(=O)N(C)C)cc1)C2` [Example 595, (S)-5-(4-(dimethylcarbamoyl)phenyl)-N-(3-fluoro-4-(2,6-diazaspiro[3.3]heptane-2-carboxamido)benzyl)-1-isopropyl-7-methyl-4,5,6,7-tetrahydro-1H-pyrazolo[4,3-c]pyridine-3-carboxamide], on STAT6, the EC50 stood at 64 nM. In assay [1], this compound had an IC50 of 83 nM.

Take `CC(C)n1nc(C(=O)NCc2ccc(NC(=O)N3CCNCC3)c(Cl)c2)c2c1[C@@H](C)CN(c1ccc(C(=O)N(C)C)cc1)C2` [Example 596, (S)-N-(3-chloro-4-(piperazine-1-carboxamido)benzyl)-5-(4-(dimethylcarbamoyl)phenyl)-1-isopropyl-7-methyl-4,5,6,7-tetrahydro-1H-pyrazolo[4,3-c]pyridine-3-carboxamide]: on STAT6, the EC50 came to 3 nM. This compound also showed a half-maximal inhibitory concentration (IC50) in assay [1] of 45 nM.

With `CNC1CN(C(=O)Nc2ccc(CNC(=O)c3nn(C(C)C)c4c3CN(c3ccc(C(=O)N(C)C)cc3)C[C@@H]4C)cc2F)C1` [Example 597, (S)-5-(4-(dimethylcarbamoyl)phenyl)-N-(3-fluoro-4-(3-(methylamino)azetidine-1-carboxamido)benzyl)-1-isopropyl-7-methyl-4,5,6,7-tetrahydro-1H-pyrazolo[4,3-c]pyridine-3-carboxamide], the EC50 at STAT6 worked out at 4 nM. The same compound came in with an IC50 in assay [1] of 28 nM.

Regarding `CC(C)n1nc(C(=O)NCc2ccc(NC(=O)N(C)CC(F)F)cc2)c2c1[C@@H](C)CN(c1ccc(C(=O)N(C)C)cn1)C2` [Example 598, (S)-N-(4-(3-(2,2-difluoroethyl)-3-methylureido)benzyl)-5-(5-(dimethylcarbamoyl)pyridin-2-yl)-1-isopropyl-7-methyl-4,5,6,7-tetrahydro-1H-pyrazolo[4,3-c]pyridine-3-carboxamide], the EC50 on STAT6 worked out at 1 nM. Half-maximal inhibition in assay [1] (IC50) was put at 13 nM.

On to `CC(C)n1nc(C(=O)NCc2ccc(NC(=O)N3CC(F)(F)C3)cc2)c2c1[C@@H](C)CN(c1ccc(C(=O)N(C)C)cn1)C2` [Example 599, (S)-N-(4-(3,3-difluoroazetidine-1-carboxamido)benzyl)-5-(5-(dimethylcarbamoyl)pyridin-2-yl)-1-isopropyl-7-methyl-4,5,6,7-tetrahydro-1H-pyrazolo[4,3-c]pyridine-3-carboxamide], for which, on STAT6, the 50% effective concentration (EC50) turned out to be 1 nM. Also, in assay [1], it took 12 nM to reach half-maximal inhibition (IC50).

Take `CC(C)n1nc(C(=O)NCc2ccc(C(=O)NC3CCN(C)CC3)cc2)c2c1[C@@H](C)CN(c1ccc(C(=O)N(C)C)cn1)C2` [Example 601, (S)-5-(5-(dimethylcarbamoyl)pyridin-2-yl)-1-isopropyl-7-methyl-N-(4-((1-methylpiperidin-4-yl)carbamoyl)benzyl)-4,5,6,7-tetrahydro-1H-pyrazolo[4,3-c]pyridine-3-carboxamide]: the EC50 at STAT6 was found to be 312 nM. It took 2100 nM to reach half-maximal inhibition in assay [1] (IC50).

For `CC(C)n1nc(C(=O)NCc2ccc(NC(=O)N3CCC4(CC3)CCN4C)c(F)c2)c2c1[C@@H](C)CN(c1ccc(C(=O)N(C)C)cn1)C2` [Example 602, (S)-5-(5-(dimethylcarbamoyl)pyridin-2-yl)-N-(3-fluoro-4-(1-methyl-1,7-diazaspiro[3.5]nonane-7-carboxamido)benzyl)-1-isopropyl-7-methyl-4,5,6,7-tetrahydro-1H-pyrazolo[4,3-c]pyridine-3-carboxamide], the EC50 at STAT6 was 1 nM. For the same compound, the IC50 in assay [1] amounted to 14 nM.

Take `CC(C)n1nc(C(=O)NCc2ccc(NC(=O)N3CC4(CCN(C)C4)C3)c(F)c2)c2c1[C@@H](C)CN(c1ccc(C(=O)N(C)C)cn1)C2` [Example 603, (S)-5-(5-(dimethylcarbamoyl)pyridin-2-yl)-N-(3-fluoro-4-(6-methyl-2,6-diazaspiro[3.4]octane-2-carboxamido)benzyl)-1-isopropyl-7-methyl-4,5,6,7-tetrahydro-1H-pyrazolo[4,3-c]pyridine-3-carboxamide]: on STAT6, the EC50 was found to be 3 nM. In addition, it took 31 nM to reach half-maximal inhibition in assay [1] (IC50).
